Target: Phosphatidylinositol 3-kinase regulatory subunit alpha/4,5-bisphosphate 3-kinase catalytic subunit alpha isoform (Homo sapiens, UniProt P27986+P42336)
Assay: Inhibition of recombinant human full-length N-terminal His6-tagged p110alpha/full length untagged human p85alpha expressed in baculovirus infected Sf21 insect cells using PIP2 as substrate measured after 15 to 30 mins by fluorescence polarization assay

Sequence of Phosphatidylinositol 3-kinase regulatory subunit alpha/4,5-bisphosphate 3-kinase catalytic subunit alpha isoform (P27986 whole entry, canonical isoform): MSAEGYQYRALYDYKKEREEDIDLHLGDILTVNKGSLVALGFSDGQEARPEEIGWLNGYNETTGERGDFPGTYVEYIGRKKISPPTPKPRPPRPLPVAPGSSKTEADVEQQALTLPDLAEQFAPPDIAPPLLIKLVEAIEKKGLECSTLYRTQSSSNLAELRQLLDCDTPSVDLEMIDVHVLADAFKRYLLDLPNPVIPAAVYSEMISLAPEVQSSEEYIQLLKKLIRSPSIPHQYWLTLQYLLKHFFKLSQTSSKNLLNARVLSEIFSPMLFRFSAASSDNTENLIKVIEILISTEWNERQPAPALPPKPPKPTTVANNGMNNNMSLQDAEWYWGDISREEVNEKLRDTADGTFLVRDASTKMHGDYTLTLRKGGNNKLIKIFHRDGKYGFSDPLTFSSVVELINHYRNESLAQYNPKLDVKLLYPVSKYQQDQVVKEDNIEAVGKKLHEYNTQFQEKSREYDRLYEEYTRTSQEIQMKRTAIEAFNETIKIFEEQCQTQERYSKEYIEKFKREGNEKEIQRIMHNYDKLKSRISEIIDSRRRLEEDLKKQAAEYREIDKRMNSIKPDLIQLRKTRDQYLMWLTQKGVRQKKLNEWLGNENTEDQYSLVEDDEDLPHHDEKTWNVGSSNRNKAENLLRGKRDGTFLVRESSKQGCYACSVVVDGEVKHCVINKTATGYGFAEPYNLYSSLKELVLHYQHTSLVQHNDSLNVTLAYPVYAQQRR
Sequence of Phosphatidylinositol 3-kinase regulatory subunit alpha/4,5-bisphosphate 3-kinase catalytic subunit alpha isoform (P42336 whole entry, canonical isoform): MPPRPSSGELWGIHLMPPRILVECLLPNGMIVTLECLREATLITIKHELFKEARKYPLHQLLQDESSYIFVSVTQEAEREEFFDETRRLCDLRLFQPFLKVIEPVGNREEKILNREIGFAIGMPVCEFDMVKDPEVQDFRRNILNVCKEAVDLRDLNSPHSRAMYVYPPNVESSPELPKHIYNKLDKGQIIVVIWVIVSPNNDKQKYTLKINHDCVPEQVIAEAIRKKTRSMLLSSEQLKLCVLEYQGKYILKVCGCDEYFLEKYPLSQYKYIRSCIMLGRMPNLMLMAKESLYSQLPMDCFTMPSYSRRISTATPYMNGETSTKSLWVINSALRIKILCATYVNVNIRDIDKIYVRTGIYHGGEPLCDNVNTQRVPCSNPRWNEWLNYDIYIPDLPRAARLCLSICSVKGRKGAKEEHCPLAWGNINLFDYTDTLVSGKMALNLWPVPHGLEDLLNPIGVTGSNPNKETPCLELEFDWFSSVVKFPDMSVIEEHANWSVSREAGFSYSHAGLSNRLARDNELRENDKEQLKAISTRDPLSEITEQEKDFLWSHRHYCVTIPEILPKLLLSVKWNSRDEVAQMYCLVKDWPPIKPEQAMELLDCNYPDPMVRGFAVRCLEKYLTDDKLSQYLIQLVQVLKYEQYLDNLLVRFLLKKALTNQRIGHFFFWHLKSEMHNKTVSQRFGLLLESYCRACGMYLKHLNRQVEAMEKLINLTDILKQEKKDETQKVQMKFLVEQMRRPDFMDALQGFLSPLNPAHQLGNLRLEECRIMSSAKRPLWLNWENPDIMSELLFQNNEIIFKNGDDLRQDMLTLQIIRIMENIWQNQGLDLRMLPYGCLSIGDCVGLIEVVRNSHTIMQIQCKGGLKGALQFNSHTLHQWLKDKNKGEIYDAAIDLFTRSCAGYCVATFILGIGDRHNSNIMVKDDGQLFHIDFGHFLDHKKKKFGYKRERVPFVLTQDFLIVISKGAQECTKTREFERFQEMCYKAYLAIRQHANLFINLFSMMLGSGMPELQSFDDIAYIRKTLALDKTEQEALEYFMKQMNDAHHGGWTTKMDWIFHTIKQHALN

IC50: 1.18 µM
SMILES: CNC(=O)Nc1ccc(-c2nc(N3CC4CCC(C3)O4)c3cnn(C4CCC5(CC4)OCCO5)c3n2)cc1 [1-(4-(4-(8-oxa-3-azabicyclo[3.2.1]octan-3-yl)-1-(1,4-dioxaspiro[4.5]decan-8-yl)-1H-pyrazolo[3,4-d]pyrimidin-6-yl)phenyl)-3-methylurea]

Reference: BindingDB's records for PubMed 20068177 (Wyeth Research)
